From US20080153896A1, “Polymorphic Forms of an HMG-CoA Reductase Inhibitor and Uses Thereof” (priority 2006, published 2008)

Assay: Stability (integrity) testing of amorphous and polymorphic form under storage conditions, RP-HPLC
Type: physicochemical
Parameters: key to Impurity RRT 0.738 / Impurity RRT 0.949 / Impurity RRT 1.050 / Impurity RRT 1.550 / Impurity RRT 0.136 / Impurity RRT 0.720 / Impurity RRT 0.706 / Impurity RRT 1.18 / Impurity RRT 1.826: % of total UV absorption (HPLC peak area)
How it was run: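 Amorphous form and three batches of polymorphic Form I of the hemi calcium salt were stored under different atmospheric conditions. Purity measured by RP-HPLC on C18 with UV detection, drug as percent of total absorption; total impurity from summed impurity peak areas, impurities identified by relative retention time.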

[1] = 25° C./60% RH 12M, hemi calcium salt
[2] = 30° C./65% RH 1M, hemi calcium salt
[3] = 30° C./65% RH 2M, hemi calcium salt
[4] = 30° C./65% RH 3M, hemi calcium salt
[5] = 30° C./65% RH 6M, hemi calcium salt
[6] = 30° C./65% RH 9M, hemi calcium salt
[7] = 30° C./65% RH 12M, hemi calcium salt
[8] = 40° C./75% RH 1M, hemi calcium salt
[9] = 40° C./75% RH 2M, hemi calcium salt
[10] = 40° C./75% RH 3M, hemi calcium salt
[11] = 40° C./75% RH 6M, hemi calcium salt
[12] = Initial, listed as Batch 1 of Polymorphic Form I, hemi calcium salt

Compound: CC(C)c1c(C(=O)Nc2ccc(CO)cc2)c(-c2ccccc2)c(-c2ccc(F)cc2)n1CC[C@@H](O)C[C@@H](O)CC(=O)[O-].CC(C)c1c(C(=O)Nc2ccc(CO)cc2)c(-c2ccccc2)c(-c2ccc(F)cc2)n1CC[C@@H](O)C[C@@H](O)CC(=O)[O-].[Ca+2] [PP00405, (3R, 5R)-7-[2-(4-fluorophenyl)-5-isopropyl-3-phenyl-4-[(4-hydroxymethylphenylamino)carbonyl]-pyrrol-1-yl]-3,5-dihydroxy-heptanoic acid, hemi calcium salt]
- Highest Impurity [1]: 0.412
- Impurity RRT 0.935 [1]: 0.412
- Impurity RRT 1.045 [1]: 0.396
- Impurity RRT 1.640 [1]: 0.051
- Total Impurity [1]: 1.318
- Water [1]: 5.47 % W/W
- Description (30° C./65% RH 1M): White
- Impurity RRT 1.094 (30° C./65% RH 1M): 0.149
- Impurity RRT 1.437 (30° C./65% RH 1M): 0.161
- Impurity RRT 1.593 (30° C./65% RH 1M): 0.061
- Impurity RRT 1.694 (30° C./65% RH 1M): 0.060
- Water (30° C./65% RH 1M): 4.16 % W/W
- Assay [2]: 98.25 % W/W
- Highest Impurity [2]: 0.370
- Impurity RRT 0.935 [2]: 0.370
- Impurity RRT 1.045 [2]: 0.300
- Impurity RRT 1.64 [2]: 0.047
- Total Impurity [2]: 1.228
- Description (30° C./65% RH 2M): White
- Impurity RRT 1.094 (30° C./65% RH 2M): 0.16
- Impurity RRT 1.180 (30° C./65% RH 2M): 0.044
- Impurity RRT 1.437 (30° C./65% RH 2M): 0.163
- Impurity RRT 1.593 (30° C./65% RH 2M): 0.080
- Impurity RRT 1.694 (30° C./65% RH 2M): 0.062
- Assay [3]: 98.23 % W/W
- Highest Impurity [3]: 0.390
- Impurity RRT 0.935 [3]: 0.390
- Impurity RRT 1.045 [3]: 0.374
- Impurity RRT 1.64 [3]: 0.044
- Total Impurity [3]: 1.320
- Water [3]: 3.85 % W/W
- Description (30° C./65% RH 3M): White
- Impurity RRT 1.094 (30° C./65% RH 3M): 0.167
- Impurity RRT 1.437 (30° C./65% RH 3M): 0.168
- Impurity RRT 1.593 (30° C./65% RH 3M): 0.081
- Impurity RRT 1.694 (30° C./65% RH 3M): 0.066
- Assay [4]: 98.15 % W/W
- Highest Impurity [4]: 0.416
- Impurity RRT 0.935 [4]: 0.416
- Impurity RRT 1.045 [4]: 0.405
- Impurity RRT 1.64 [4]: 0.048
- Total Impurity [4]: 1.350
- Water [4]: 4.73 % W/W
- Description (30° C./65% RH 6M): White
- Impurity RRT 0.136 (30° C./65% RH 6M): 0.049
- Impurity RRT 1.094 (30° C./65% RH 6M): 0.140
- Impurity RRT 1.437 (30° C./65% RH 6M): 0.150
- Impurity RRT 1.593 (30° C./65% RH 6M): 0.077
- Impurity RRT 1.694 (30° C./65% RH 6M): 0.044
- Assay [5]: 98.08 % W/W
- Highest Impurity [5]: 0.361
- Impurity RRT 0.935 [5]: 0.355
- Impurity RRT 1.045 [5]: 0.361
- Impurity RRT 1.640 [5]: 0.042
- Total Impurity [5]: 1.218
- Water [5]: 5.62 % W/W
- Description (30° C./65% RH 9M): White
- Impurity RRT 0.136 (30° C./65% RH 9M): 0.056
- Impurity RRT 1.094 (30° C./65% RH 9M): 0.134
- Impurity RRT 1.437 (30° C./65% RH 9M): 0.147
- Impurity RRT 1.593 (30° C./65% RH 9M): 0.080
- Impurity RRT 1.694 (30° C./65% RH 9M): 0.051
- Assay [6]: 98.15 % W/W
- Highest Impurity [6]: 0.387
- Impurity RRT 0.935 [6]: 0.387
- Impurity RRT 1.045 [6]: 0.351
- Impurity RRT 1.640 [6]: 0.033
- Total Impurity [6]: 1.239
- Water [6]: 5.55 % W/W
- Impurity RRT 0.136 (30° C./65% RH 12M): 0.240
- Impurity RRT 1.094 (30° C./65% RH 12M): 0.120
- Impurity RRT 1.437 (30° C./65% RH 12M): 0.148
- Impurity RRT 1.593 (30° C./65% RH 12M): 0.075
- Impurity RRT 1.694 (30° C./65% RH 12M): 0.055
- Assay [7]: 98.09 % W/W
- Highest Impurity [7]: 0.375
- Impurity RRT 0.935 [7]: 0.375
- Impurity RRT 1.045 [7]: 0.372
- Impurity RRT 1.640 [7]: 0.044
- Total Impurity [7]: 1.492
- Water [7]: 5.91 % W/W
- Description (40° C./75% RH 1M): White
- Impurity RRT 1.094 (40° C./75% RH 1M): 0.167
- Impurity RRT 1.437 (40° C./75% RH 1M): 0.155
- Impurity RRT 1.593 (40° C./75% RH 1M): 0.085
- Impurity RRT 1.694 (40° C./75% RH 1M): 0.071
- Assay [8]: 98.22 % W/W
- Highest Impurity [8]: 0.405
- Impurity RRT 0.935 [8]: 0.405
- Impurity RRT 1.045 [8]: 0.39
- Impurity RRT 1.64 [8]: 0.05
- Total Impurity [8]: 1.323
- Water [8]: 4.52 % W/W
- Description (40° C./75% RH 2M): White
- Impurity RRT 1.094 (40° C./75% RH 2M): 0.164
- Impurity RRT 1.180 (40° C./75% RH 2M): 0.049
- Impurity RRT 1.437 (40° C./75% RH 2M): 0.169
- Impurity RRT 1.593 (40° C./75% RH 2M): 0.082
- Impurity RRT 1.694 (40° C./75% RH 2M): 0.067
- Assay [9]: 98.16 % W/W
- Highest Impurity [9]: 0.408
- Impurity RRT 0.935 [9]: 0.407
- Impurity RRT 1.045 [9]: 0.408
- Impurity RRT 1.64 [9]: 0.046
- Total Impurity [9]: 1.39
- Water [9]: 4.63 % W/W
- Description (40° C./75% RH 3M): White
- Impurity RRT 1.094 (40° C./75% RH 3M): 0.162
- Impurity RRT 1.437 (40° C./75% RH 3M): 0.167
- Impurity RRT 1.593 (40° C./75% RH 3M): 0.094
- Impurity RRT 1.694 (40° C./75% RH 3M): 0.056
- Assay [10]: 98.11 % W/W
- Highest Impurity [10]: 0.403
- Impurity RRT 0.935 [10]: 0.403
- Impurity RRT 1.045 [10]: 0.396
- Impurity RRT 1.64 [10]: 0.049
- Total Impurity [10]: 1.330
- Water [10]: 4.64 % W/W
- Description (40° C./75% RH 6M): White
- Impurity RRT 1.094 (40° C./75% RH 6M): 0.146
- Impurity RRT 1.437 (40° C./75% RH 6M): 0.151
- Impurity RRT 1.593 (40° C./75% RH 6M): 0.098
- Impurity RRT 1.694 (40° C./75% RH 6M): 0.074
- Assay [11]: 98.22 % W/W
- Highest Impurity [11]: 0.391
- Impurity RRT 0.935 [11]: 0.391
- Impurity RRT 1.045 [11]: 0.351
- Impurity RRT 1.640 [11]: 0.031
- Total Impurity [11]: 1.242
- Water [11]: 5.55 % W/W
- Description (Initial): White
- Impurity RRT 0.720 (Initial): 0.046
- Impurity RRT 1.094 (Initial): 0.142
- Impurity RRT 1.437 (Initial): 0.162
- Impurity RRT 1.593 (Initial): 0.079
- Impurity RRT 1.694 (Initial): 0.068
- Assay [12]: 98.48 % W/W
- Highest Impurity [12]: 0.411
- Impurity RRT 1.045 [12]: 0.385
- Impurity RRT 1.64 [12]: 0.046
- Total Impurity [12]: 1.340
- Water [12]: 4.55 % W/W
